In patent US8106091B2, “Inhibitors of IKK-beta serine-threonine protein kinase” (Chroma Therapeutics Ltd., priority 2006, dated 2012) one finds IC50 data, which are given here for eleven molecules.

Assay [1] deals with T1, IKBKB (IKKβ) (Homo sapiens, UniProt O14920).
T1 construct: purchased Invitrogen (Paisley, UK)
T1 sequence (O14920 1-756): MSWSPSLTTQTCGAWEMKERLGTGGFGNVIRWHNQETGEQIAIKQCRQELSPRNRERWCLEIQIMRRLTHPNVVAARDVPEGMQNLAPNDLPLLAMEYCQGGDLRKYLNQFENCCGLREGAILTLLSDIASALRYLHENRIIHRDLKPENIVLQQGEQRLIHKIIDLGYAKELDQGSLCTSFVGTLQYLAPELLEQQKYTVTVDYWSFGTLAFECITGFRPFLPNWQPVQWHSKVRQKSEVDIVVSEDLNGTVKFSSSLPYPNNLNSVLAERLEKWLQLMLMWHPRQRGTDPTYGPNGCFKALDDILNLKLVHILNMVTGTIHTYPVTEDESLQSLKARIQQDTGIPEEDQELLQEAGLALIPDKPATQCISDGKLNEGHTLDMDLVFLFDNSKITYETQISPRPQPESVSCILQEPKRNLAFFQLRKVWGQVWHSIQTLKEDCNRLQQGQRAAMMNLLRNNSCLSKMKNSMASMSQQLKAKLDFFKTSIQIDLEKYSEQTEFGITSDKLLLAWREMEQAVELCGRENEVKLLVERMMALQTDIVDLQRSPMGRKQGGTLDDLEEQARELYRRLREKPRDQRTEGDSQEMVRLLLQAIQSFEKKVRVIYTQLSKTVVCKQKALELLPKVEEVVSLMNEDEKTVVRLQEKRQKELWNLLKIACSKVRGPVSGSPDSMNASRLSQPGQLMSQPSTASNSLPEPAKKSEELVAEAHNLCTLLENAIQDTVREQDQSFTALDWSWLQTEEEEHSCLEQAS
Kind of assay: IKKβ enzyme assay (Z'-LYTE, Invitrogen). The conditions noted are these: ATP at or close to Km; read-out: Inhibitor activity versus IKKβ. In kind it is biochemical. As to the method: The ability of compounds to inhibit IKKβ kinase activity was measured in an assay performed by Invitrogen (Paisley, UK). The Z′-LYTE™ biochemical assay employs a fluorescence-based, coupled-enzyme format and is based on the differential sensitivity of phosphorylated and non-phosphorylated peptides to proteolytic cleavage. The peptide substrate is labelled with two fluorophores—one at each end—that make up a FRET pair. In the primary reaction, the kinase transfers the gamma-phosphate of ATP to a single serine or threonine residue in a synthetic FRET-peptide. In the secondary reaction, a site-specific protease recognizes and cleaves non-phosphorylated FRET-peptides. Phosphorylation of FRET-peptides suppresses cleavage by the Development Reagent. Cleavage disrupts FRET between the donor (i.e., coumarin) and acceptor (i.e. fluorescein) fluorophores on the FRET-peptide, whereas uncleaved, phosphorylated FRET-peptides maintain FRET. A […] method, which calculates the ratio (the Emission Ratio) of donor emission to acceptor emission after excitation of the donor fluorophore at 400 nm, is used to quantitate reaction progress.
The final 10 μL Kinase Reaction consists of 0.9-8.0 ng IKBKB (IKKβ), 2 μM Ser/Thr 05 Peptide and ATP in 50 mM HEPES pH 7.5, 0.01% BRIJ-35, 10 mM MgCl2, 1 mM EGTA. The assay is performed at an ATP concentration at, or close to the Km. After the 60 minute Kinase Reaction incubation at room temperature, 5 μL of a 1:128 dilution of Development Reagent is added. The assay plate is incubated for a further 60 minutes at room temperature and read on a fluorescence plate reader.
Duplicate data points are generated from a ⅓ log dilution series of a stock solution of test compound in DMSO. Nine dilutions steps are made from a top concentration of 10 μM, and a ‘no compound’ blank is included. Data is collected and analysed using XLfit software from IDBS. The dose response curve is curve fitted to model number 205 (sigmoidal dose-response model). From the curve generated, the concentration giving 50% inhibition is determined and reported.

Assay [2] deals with human whole blood. Kind of assay: LPS-stimulation of human whole blood, TNF-α release. The class given is cell-based. The conditions noted are these: LPS 100 ng/ml, 6 hrs, inhibitor added 2 hrs before, read-out: Inhibitor activity versus human whole blood TNFα release. The method, then:
LPS-Stimulation of Human Whole Blood
Whole blood was taken by venous puncture using heparinised vacutainers (Becton Dickinson) and diluted in an equal volume of RPMI1640 tissue culture media (Sigma). 100 μl was plated in V-bottomed 96 well tissue culture treated plates. 2 hrs after the addition of the inhibitor in 100 μl of RPMI1640 media, the blood was stimulated with LPS (E coli strain 005:B5, Sigma) at a final concentration of 100 ng/ml and incubated at 37° C. in 5% CO2 for 6 hrs. TNF-α levels were measured from cell-free supernatants by sandwich ELISA (R&D Systems #QTA00B)

Assay [3] has as its system THP-1 cells. The assay is described as follows: LPS-stimulation of THP-1 cells, TNF-α release. The class given is cell-based. The settings on record: Homo sapiens, LPS 1 μg/ml, 6 hrs, inhibitor added 2 hrs before, read-out: Inhibitor activity versus THP-1 TNFα release. As to the method: LPS-Stimulation of THP-1 Cells
THP-1 cells were plated in 100 μl at a density of 4×10^4 cells/well in V-bottomed 96 well tissue culture treated plates and incubated at 37° C. in 5% CO2 for 16 hrs. 2 hrs after the addition of the inhibitor in 100 μl of tissue culture media, the cells were stimulated with LPS (E coli strain 005:B5, Sigma) at a final concentration of 1 μg/ml and incubated at 37° C. in 5% CO2 for 6 hrs. TNF-α levels were measured from cell-free supernatants by sandwich ELISA (R&D Systems #QTA00B)

Structures are written as SMILES.

Turning to `NC(=O)Nc1sc(-c2ccc(OCC[C@H](N)C(=O)OC3CCCC3)cc2Cl)cc1C(N)=O` [Example 7, Cyclopentyl O-{4-[4-carbamoyl-5-(carbamoylamino)-2-thienyl]-3-chlorophenyl}-L-homoserinate], the IC50 is < 1000 nM in assay [1], > 5000 nM in assay [2] and < 1000 nM in assay [3].
For the molecule `Cc1cc(OCC[C@H](N)C(=O)OC2CCCC2)ccc1-c1cc(C(N)=O)c(NC(N)=O)s1` [Example 5, Cyclopentyl O-{4-[4-carbamoyl-5-(carbamoylamino)-2-thienyl]-3-methylphenyl}-L-homoserinate], the results for the IC50 in assay [1], in assay [2] and in assay [3] were < 1000 nM, > 5000 nM and < 1000 nM, respectively.
For `Cc1cc(-c2cc(C(N)=O)c(NC(N)=O)s2)ccc1OCC[C@H](N)C(=O)OC1CCCC1` [Example 6, Cyclopentyl O-{4-[4-carbamoyl-5-(carbamoylamino)-2-thienyl]-2-methylphenyl}-L-homoserinate], the IC50 is < 1000 nM in assay [1], > 5000 nM in assay [2] and < 1000 nM in assay [3].
For `NC(=O)Nc1sc(-c2ccc(/C=C/C[C@@H](N)C(=O)OC3CCCC3)cc2)cc1C(N)=O` [Example 10, Cyclopentyl (2R,4E)-2-amino-5-{4-[4-carbamoyl-5-(carbamoylamino)-2-thienyl]phenyl}pent-4-enoate], the IC50 in assay [1], in assay [2] and in assay [3] was < 1000 nM throughout.
As to `NC(=O)Nc1sc(-c2ccc(C#CC[C@H](N)C(=O)OC3CCCC3)cc2)cc1C(N)=O` [Example 15, Cyclopentyl (2S)-2-amino-5-{4-[4-carbamoyl-5-(carbamoylamino)-2-thienyl]phenyl}pent-4-ynoate], the IC50 in assay [1] is < 1000 nM; in assay [2], > 5000 nM; in assay [3] it was 1000 to 5000 nM.
The like results for `Cc1cc(-c2cc(C(N)=O)c(NC(N)=O)s2)ccc1/C=C/C[C@H](N)C(=O)OC1CCCC1` [Example 14, Cyclopentyl (2S,4E)-2-amino-5-{4-[4-carbamoyl-5-(carbamoylamino)-2-thienyl]-2-methylphenyl}pent-4-enoate] were, in that order, < 1000 nM, < 1000 nM and < 1000 nM.
On to `NC(=O)Nc1sc(-c2ccc(CCC[C@H](N)C(=O)OC3CCCC3)cc2)cc1C(N)=O` [Example 11, Cyclopentyl 5-{4-[4-carbamoyl-5-(carbamoylamino)-2-thienyl]phenyl}-L-norvalinate], for which the IC50 in assay [1] was < 1000 nM; in assay [2] it was 1000 to 5000 nM; in assay [3] it was < 1000 nM.
As for `NC(=O)Nc1sc(-c2ccc(N(CC[C@H](N)C(=O)OC3CCCC3)Cc3ccccc3)cc2)cc1C(N)=O` [Example 21, Cyclopentyl (2S)-2-amino-4-(benzyl{4-[4-carbamoyl-5-(carbamoylamino)thiophen-2-yl]phenyl}amino)butanoate], the IC50 was < 1000 nM in assay [1] and 1000 to 5000 nM in assay [3].
As for `NC(=O)Nc1sc(-c2ccc(/C=C/C[C@@H](NC3CCCCC3)C(=O)OC3CCCC3)cc2)cc1C(N)=O` [Example 20, Cyclopentyl (2R,4E)-5-{4-[4-carbamoyl-5-(carbamoylamino)thiophen-2-yl]phenyl}-2-(cyclohexylamino)pent-4-enoate], the IC50 is < 1000 nM in assay [1] and 1000 to 5000 nM in assay [3].
The like results for `NC(=O)Nc1sc(-c2ccc(OCC[C@H](NC3CCCCC3)C(=O)OC3CCCC3)cc2)cc1C(N)=O` [Example 19, Cyclopentyl O-{4-[4-carbamoyl-5-(carbamoylamino)thiophen-2-yl]phenyl}-N-cyclohexyl-L-homoserinate] were, in that order, < 1000 nM and > 5000 nM.
The like results for `NC(=O)Nc1cc(-c2ccc(OCC[C@H](N)C(=O)OC3CCCC3)cc2)sc1C(N)=O` [Example 23, Cyclopentyl O-{4-[5-carbamoyl-4-(carbamoylamino)-2-thienyl]phenyl}-L-homoserinate] were, in that order, < 1000 nM and 1000 to 5000 nM.
